Legend:
Assay type in all cases: in vivo
[1] = tested on: Alopecurus myosuroides (AM); test: Herbicidal activity in pre-emergence; conditions: dose 500 g/ha, 28 days after treatment, damage scale 0-5 vs blank
Method: (§1) Determination of the herbicidal activity and phytotoxicity in pre-emergence. The herbicidal activity of the compounds of the invention in pre-emergence was evaluated according to the following operating procedure. The vegetable species of interest (weeds or crops) were planted in vases having a diameter of over 10 cm, a height of 10 cm and containing sandy soil. 10 vases were used for each vegetable species. The vases were divided into a further two groups each containing 5 vases for each weed or crop. 24 hours after planting, the vases were dampened with a light shower. An hour after wetting, the first group of vases was treated with a hydro-acetone dispersion containing acetone at 10% v, the product to be evaluated at the desired concentration and Tween 20 at 0.5%. The second group was only treated with a hydroacetone solution containing acetone at 10% by volume and Tween 20 at 0.5%, and was used as a comparison (blank). After the treatment, all the vases were uniformly watered and kept in a conditioned environment under the following environmental conditions: temperature: 24° C. relative humidity: 60% photoperiod: 16 hours light intensity: 10,000 lux 28 days after treatment, the herbicidal activity was evaluated on the basis of the following scale of values referring to the percentage of damage measured on the treated plants with respect to those not treated (blank): Table 3 indicates the results obtained with compounds C-1, C-2 and C-3, evaluated at a dose of 500 g/ha on the following vegetable species: Amarantus retroflexus (AR), Capsella bursa pastoris (CP), Chenopodium album (CA), Galium aparine (GA), Matricaria chamomilla (MC), Papaver rhoeas (PR), Portulaca oleracea (PO), Stellaria media (SM), Alopecurus myosuroides (AM), Panicum dicothomiflorum (PD), maize (M), wheat (F).

[2] = tested on: Amarantus retroflexus (AR); test: Herbicidal activity in pre-emergence; conditions: dose 500 g/ha, 28 days after treatment, damage scale 0-5 vs blank
Method: as §1

[3] = tested on: Capsella bursa pastoris (CP); test: Herbicidal activity in pre-emergence; conditions: dose 500 g/ha, 28 days after treatment, damage scale 0-5 vs blank
Method: as §1

Chenopodium album (CA) = test: Herbicidal activity in pre-emergence; conditions: dose 500 g/ha, 28 days after treatment, damage scale 0-5 vs blank
Method: as §1

Galium aparine (GA) = test: Herbicidal activity in pre-emergence; conditions: dose 500 g/ha, 28 days after treatment, damage scale 0-5 vs blank
Method: as §1

[4] = tested on: Matricaria chamomilla (MC); test: Herbicidal activity in pre-emergence; conditions: dose 500 g/ha, 28 days after treatment, damage scale 0-5 vs blank
Method: as §1

[5] = tested on: Panicum dicothomiflorum (PD); test: Herbicidal activity in pre-emergence; conditions: dose 500 g/ha, 28 days after treatment, damage scale 0-5 vs blank
Method: as §1

Papaver rhoeas (PR) = test: Herbicidal activity in pre-emergence; conditions: dose 500 g/ha, 28 days after treatment, damage scale 0-5 vs blank
Method: as §1

Portulaca oleracea (PO) = test: Herbicidal activity in pre-emergence; conditions: dose 500 g/ha, 28 days after treatment, damage scale 0-5 vs blank
Method: as §1

Stellaria media (SM) = test: Herbicidal activity in pre-emergence; conditions: dose 500 g/ha, 28 days after treatment, damage scale 0-5 vs blank
Method: as §1

maize (M) = test: Phytotoxicity in pre-emergence; conditions: maize (crop), dose 500 g/ha, 28 days after treatment, damage scale 0-5 vs blank
Method: (§2) Determination of the herbicidal activity and phytotoxicity in pre-emergence. The herbicidal activity of the compounds of the invention in pre-emergence was evaluated according to the following operating procedure. The vegetable species of interest (weeds or crops) were planted in vases having a diameter of over 10 cm, a height of 10 cm and containing sandy soil. 10 vases were used for each vegetable species. The vases were divided into a further two groups each containing 5 vases for each weed or crop. 24 hours after planting, the vases were dampened with a light shower. An hour after wetting, the first group of vases was treated with a hydro-acetone dispersion containing acetone at 10% v, the product to be evaluated at the desired concentration and Tween 20 at 0.5%. The second group was only treated with a hydroacetone solution containing acetone at 10% by volume and Tween 20 at 0.5%, and was used as a comparison (blank). […]

wheat (F) = test: Phytotoxicity in pre-emergence; conditions: wheat (crop), dose 500 g/ha, 28 days after treatment, damage scale 0-5 vs blank
Method: as §2

| SMILES | Herbicidal activity in pre-emergence, AM [1] | Herbicidal activity in pre-emergence, AR [2] | Herbicidal activity in pre-emergence, CP [3] | Herbicidal activity in pre-emergence, CA (Chenopodium album (CA)) | Herbicidal activity in pre-emergence, GA (Galium aparine (GA)) | Herbicidal activity in pre-emergence, MC [4] | Herbicidal activity in pre-emergence, PD [5] | Herbicidal activity in pre-emergence, PR (Papaver rhoeas (PR)) | Herbicidal activity in pre-emergence, PO (Portulaca oleracea (PO)) | Herbicidal activity in pre-emergence, SM (Stellaria media (SM)) | Herbicidal activity (phytotoxicity) in pre-emergence, M (maize (M)) | Herbicidal activity (phytotoxicity) in pre-emergence, F (wheat (F)) |
| --- | --- | --- | --- | --- | --- | --- | --- | --- | --- | --- | --- | --- |
| Cc1ccc(NC(=O)C2CC2)c(COc2cccc(C(F)(F)F)c2)c1 [C-2, N-[4-methyl-2-(3-trifluoromethylphenoxy)methylphenyl]cyclopropanecarboxamide] | 5 (5=90% damage—death of the plant) | 5 (5=90% damage—death of the plant) | 5 (5=90% damage—death of the plant) | 5 (5=90% damage—death of the plant) | 5 (5=90% damage—death of the plant) | 5 (5=90% damage—death of the plant) | 5 (5=90% damage—death of the plant) | 5 (5=90% damage—death of the plant) | 5 (5=90% damage—death of the plant) | 5 (5=90% damage—death of the plant) | 0 (0=0-9% damage) | 0 (0=0-9% damage) |
| Cc1ccc(NC(=O)C2CC2)c(OCc2cccc(C(F)(F)F)c2)c1 [C-1, N-[4-methyl-2-(3-trifluoromethylphenyl)-methoxyphenyl]cyclopropanecarboxamide] | 5 (5=90% damage—death of the plant) | 5 (5=90% damage—death of the plant) | 5 (5=90% damage—death of the plant) | 5 (5=90% damage—death of the plant) | 5 (5=90% damage—death of the plant) | 5 (5=90% damage—death of the plant) | 5 (5=90% damage—death of the plant) | 5 (5=90% damage—death of the plant) | 5 (5=90% damage—death of the plant) | 5 (5=90% damage—death of the plant) | – | – |

From patent publication US20040242426A1, “New derivatives of substituted anilined with herbicidal activity” (priority 2001, published 2004)
